{
  "source": "patent US20090005435A1",
  "about": "“Novel Compounds, Pharmaceutical Compositions Containing Same, and Methods of Use for Same” (priority 2004, published 2009)",
  "type_in_all_cases": "cell-based",
  "key": {"[1]": {"test_system": "MCF-7 human breast cancer cells", "experiment": "Crystal violet cell growth assay", "conditions": "MCF7, MCF-7 cells, read-out: Cr. Violet (IC50)", "protocol": "Crystal Violet Cell Growth Assay\nThe crystal violet assay measure cell growth but not cytotoxicity. This assay employs crystal violet staining of fixed cells in 96-well plates with subsequent solubilization and measurement of OD490 on a spectrophotometer. The OD490 corresponds to cell growth per unit time measured. Cells are treated with the compounds of interest or vehicle controls and IC50 for each compound is computed.\nTo measure the cytotoxicity of specific compounds against cancer cells, 5×10^4 MCF-7 human breast cancer cells, obtained from the American Type Culture Collection are plated per well in 24 well plates in DMEM medium with 10% fetal bovine serum, penicillin, and streptomycin. Following overnight culture at 37° C. and 5% CO2, the compounds to be tested, dissolved in DMSO, are added to the wells in 1 μl volume at the following concentrations: 50, 40, 30, 20, and 10 μg/ml in triplicate. […]\nAfter 72 hours of incubation, cells are stained with 0.5 ml of Crystal Violet stain (0.5% in 25% methanol) in each well. […] Following transfer of 100 μl from each well to a 96-well plate, plates are read at OD490 on a Molecular Devices SpectraMax Plus Spectrophotometer Average OD490 values are computed using SOFTmax Pro Software (Molecular Devices) and IC50 values are determined by linear regression analysis using Prism version 3.02 (Graph Pad Software, San Diego)."}, "[2]": {"test_system": "Pseudomonas aeruginosa (ATCC #27853)", "experiment": "Broth microdilution MIC, P. aeruginosa", "protocol": "(§1) A broth microdilution assay is used to assess the antimicrobial activity of the compounds. Compounds are tested at twofold serial dilutions, and the concentration that inhibits visible growth (OD600 at 10% of control) is defined as the MIC. Microorganisms tested include Staphylococcus aureus (ATCC #29213), Enterococcus faecalis (ATCC #29212), Pseudomonas aeruginosa (ATCC #27853), and Escherichia coli (ATCC #25922). The assay is performed in two growth media, Mueller Hinton Broth and Trypticase Soy Broth.\n(§2) A blood (Tsoy/5% sheep blood) agar plate is inoculated from frozen stocks maintained in T soy broth containing 10% glycerol and incubated overnight at 37° C. Colonies are suspended in sterile broth so that the turbidity matches the turbidity of a 0.5 McFarland standard. The inoculum is diluted 1:10 in sterile broth (Mueller Hinton or Trypticase soy) and 195 ul is dispensed per well of a 96-well plate. […]\n(§3) After 24 hours of incubation at 37° C., plates are read at OD600 on a Molecular Devices SpectraMax Plus Spectrophotometer. Average OD600 values are computed using SOFTmax Pro Software (Molecular Devices) and MIC values are determined by linear regression analysis using Prism version 3.02 (Graph Pad Software, San Diego). […]"}, "[3]": {"test_system": "Escherichia coli (ATCC #25922)", "experiment": "Broth microdilution MIC, E. coli", "protocol": "as §1, §2, §3"}},
  "data": [
    {"smiles": "C=CCC1(CC=C)C(=O)SC(C)(CCCCCCCC)C1=O", "note": "(racemic) [Compound 4, 3,3-Diallyl-5-methyl-5-octyl-thiophene-2,4-dione]", "values": [
      {"measurement": "IC50", "setting": "[1]", "result": "15 ± 7.7", "unit": "µg/mL"},
      {"measurement": "PSAE/MH (MIC)", "setting": "[2]; Mueller Hinton Broth", "result": "Neg"},
      {"measurement": "PSAE/Tsoy", "setting": "[2]; Trypticase Soy Broth", "result": "Neg"},
      {"measurement": "Ecoli/MH (MIC)", "setting": "[3]; Mueller Hinton Broth", "result": "Neg"},
      {"measurement": "Ecoli/Tsoy", "setting": "[3]; Trypticase Soy Broth", "result": "Neg"}
    ]}
  ]
}
